# In ChEMBL document CHEMBL1130832, “5-Alkyl-2-[(methylthiomethyl)thio]-6-(benzyl)-pyrimidin-4-(1H)-ones as potent non-nucleoside reverse transcriptase inhibitors of S-DABO series” (Bioorg Med Chem Lett, 1998):
# Key:
# [1] = Compound was evaluated for cytotoxic activity against peripheral blood mononuclear cells using microculture tetrazolium assay; type: functional; conditions: Homo sapiens
# [2] = target: Human immunodeficiency virus type 1 reverse transcriptase (Human immunodeficiency virus 1, UniProt Q72547); assay: Compound was evaluated for enzymatic inhibitory activity against recombinant HIV reverse transcriptase
# [3] = Compound was evaluated for inhibition of p24 production in HIV infected peripheral blood mononuclear cells; type: functional; conditions: Homo sapiens
Compound,IC50 [1] [µM],IC50 [2] [µM],IC50 [3] [µM]
CCc1c(O)nc(SCSC)nc1Cc1ccccc1,> 100,9.7,0.8
CSCSc1nc(O)c(C(C)C)c(Cc2ccccc2)n1,> 100,6.1,< 0.001
CCOCn1c(Cc2ccccc2)c(C(C)C)c(=O)[nH]c1=O [EMIVIRINE],> 100,,
Cc1cn([C@H]2C[C@H](N=[N+]=[N-])[C@@H](CO)O2)c(=O)[nH]c1=O [ZIDOVUDINE],100,> 100,0.004
CSCSc1nc(O)c(C(C)C)c(Cc2cc(C)cc(C)c2)n1,> 100,4.8,0.01
CSCSc1nc(O)c(C)c(Cc2ccccc2)n1,> 100,18.8,4.5
